# Experimental data as given in article PMC11189555, “Aryl amino acetamides prevent Plasmodium falciparum ring development via targeting the lipid-transfer protein PfSTART1” (Nature Communications, 2024).
# “And” between values parts separate entries of the source, which are not always exact repeats. Identical values can stand only once. Like-named read-outs stand apart in the source and are kept apart here.
# Key:
# CR-N309K parasites = assay: Growth inhibition assay (72 h, LDH activity); type: cell-based, Plasmodium falciparum; conditions: for inhibition at 5 µM: read-out: NORMALISED (growth inhibition, LDH absorbance)
# Procedure: (§1) Parasite growth assays with inhibitory compounds were performed as per[11] and are fully described in the Supplementary Information.
# (§2) Molecular biology and transfection of P. falciparum: CRISPR method.
# (§3) The full 5’ homology region of pfstart1 (either WT, N309K or N330K) was amplified from pPfSTART1-HA-2A-Neo-glmS with the same 5’ BglII primer and a new 3’ primer that replaced with PstI with SpeI and introduced a stop codon. The PCR product was then digested with BglII and SpeI and inserted into similarly digested p1.2 parasite vector2. The p1.2 vector had previously been inserted with a homology region amplified from the 3’ end of the pfstart1 gene (3’HB) to form a second homology block for double recombination. The primers used to amplify 3’HB are listed primers listed in […]
# (§4) 60 μg of p1.2-PfSTART1(WT/N309K/N330K) plasmid was linearised with KasI, precipitated in 3 M sodium acetate and ethanol (70% final concentration) overnight at -20°C. The DNA pellet was washed in cold 70% ethanol and resuspended in cytomix 3.
# (§5) 50 μ M of crRNA ( Table S 2) and 50 μM of tracRNA (Integrated DNA Technologies) were allowed to form a duplex (5 min at 95°C), and Cas9 enzyme (Integrated DNA Technologies) was added, and incubated for 20 min at room temperature 4. This crRNA -tracRNA -Cas9 mix was added to each DNA preparation and transfected to 3D7 ring parasites using the Bio -Rad Gene Pulser at 310 V and 950 μF.
# (§6) Parasites containing the transfected DNA were selected using 2.5 nM WR99210 (Jacobus). Parasites lines were cloned using limiting dilution. Correct integration was tested by PCR (using primer START_5’UTR.F and START_Int.R1 , Table S 2), and sequencing was done using the primers START_3F and START_Int.R2 (Table S 2).
# (§7) Growth inhibition assays. Synchronised ring-stage parasites (0.3-0.6% parasitemia, 2% haematocrit) were grown for 72 h in a serial-dilution of the compound under […]
# (§8) and compound 4. Note that M-833 was first purchased from MolPort (MolPort -002-267-916) then made in-house at WEHI: the differences observed in EC50s across experiments are attributed to the different batches of M -833. For some experiments, 0, 0.25 or 2.5 mM of glucosamine (GlcN) was also added. Experiments were set up in technical duplicates or triplicates. Following a freeze -thaw cycle, lactate dehydrogenase (LDH) activity was assessed as an indicator of parasite growt h 5. 30 μL of parasite culture was incubated for 30 min in the dark with 75 μL Malstat mixture (0.1 M Tris pH 9.0, 20 g/L lactic acid, pH 7.5, 0.2% Triton-X100, 0.5 g/L acetylpyridine adenine dinucleotide (APAD, Sigma), 200 μg/mL nitroblue tetrazolium (NBT; Sigma), 1 μg/mL phenozine ethosulfate (PES; Sigma)). Absorbance was then measured at 650 nm, transformed using the formula below, plotted against the logarithm of the concentrations, and a non-linear regression (log(inhibitor) vs. response, variable slope) was calculated using GraphPad Prism to assess the half-inhibitory […]
# (§9) Growth inhibition % = (1 − average(sample)− average(uRBC)) ∗ 100 […]
# (§10) The DMSO samples were also used to assess growth of parasite in the presence of 0.25 and 2.5 mM GlcN (normalised by DMSO in 0 mM GlcN).
# (§11) Egress, invasion & recovery assay. To measure egress, invasion and follow up recovery in the presence of different compounds, we adapted the method developed in6, using Hyp1-Nluc parasites7. These parasites episomally express the exported PEXEL protein Hyp1 (PF3D7_0113300) tagged with a NanoLuc luciferase (NLuc) and were selected with 2.5 nM WR99210 (Jacobus). Highly synchronised schizonts were obtained using ML10 (LifeArc) and sorbitol synchronisation, and Percoll-purified (the culture was gently layered over 67% Percoll (Cytiva) in RPMI, and centrifuged for 15 min at 1500 g and the schizont layer was collected and washed). In a 96-well plate, […]
# CR-N330K parasites = assay: Growth inhibition assay (72 h, LDH activity); type: cell-based, Plasmodium falciparum
# Procedure: as §1, §2, §3, §4, §5, §6, §7, §8, §9, §10, §11
# [1] = 0.25 mM GlcN, dilution point 1 of 10, starting concentration 5 uM
# [2] = 0.25 mM GlcN, dilution point 2 of 10 from starting concentration 5 uM
# [3] = 0.25 mM GlcN, dilution point 3 of 10 from starting concentration 5 uM
# [4] = 0.25 mM GlcN, dilution point 6 of 10 from starting concentration 5 uM
# [5] = 2.5 mM GlcN, dilution point 1 of 10, starting concentration 5 uM
# [6] = 2.5 mM GlcN, dilution point 2 of 10 from starting concentration 5 uM
# [7] = 2.5 mM GlcN, dilution point 3 of 10 from starting concentration 5 uM
# [8] = 2.5 mM GlcN, dilution point 4 of 10 from starting concentration 5 uM
# [9] = 2.5 mM GlcN, dilution point 5 of 10 from starting concentration 5 uM
# [10] = 2.5 mM GlcN, dilution point 6 of 10 from starting concentration 5 uM
smiles,measurement,setting,value
CC(C)(Nc1ccc(Cl)c(S(=O)(=O)N2CCOCC2)c1)C(=O)Nc1ccc(F)c(Cl)c1 [W-991],"NORMALISED (growth inhibition, LDH absorbance vs DMSO and uRBC)","CR-N309K parasites; 0 mM GlcN, W991 at 185.185 nM",14.1711 and 15.2813
same,"NORMALISED (growth inhibition, LDH absorbance vs DMSO and uRBC)","CR-N309K parasites; 0 mM GlcN, W991 at 555.556 nM",55.508 and 36.7800
same,"NORMALISED (growth inhibition, LDH absorbance vs DMSO and uRBC)","CR-N309K parasites; 0 mM GlcN, W991 at 1666.67 nM",87.9679 and 76.9970
same,"NORMALISED (growth inhibition, LDH absorbance vs DMSO and uRBC)","CR-N309K parasites; 0 mM GlcN, W991 at 5000 nM",96.4706 and 92.1927
same,"NORMALISED (growth inhibition, LDH absorbance)",CR-N309K parasites; [1],94.7776
same,"NORMALISED (growth inhibition, LDH absorbance)",CR-N309K parasites; [2],100.739 and 90.0516
same,"NORMALISED (growth inhibition, LDH absorbance)",CR-N309K parasites; [3],80.0443 and 56.9500
same,"NORMALISED (growth inhibition, LDH absorbance)","CR-N309K parasites; 0.25 mM GlcN, dilution point 5 of 10 from starting concentration 5 uM",17.9601 and 13.8403
same,"NORMALISED (growth inhibition, LDH absorbance)",CR-N309K parasites; [4],8.426 and 8.7470
same,"NORMALISED (growth inhibition, LDH absorbance)",CR-N309K parasites; [5],83.5476
same,"NORMALISED (growth inhibition, LDH absorbance)",CR-N309K parasites; [6],82.9906
same,"NORMALISED (growth inhibition, LDH absorbance)",CR-N309K parasites; [7],95.6522 and 78.1705
same,"NORMALISED (growth inhibition, LDH absorbance)",CR-N309K parasites; [8],71.5415 and 48.7789
same,"NORMALISED (growth inhibition, LDH absorbance)",CR-N309K parasites; [9],41.502 and 22.2365
same,"NORMALISED (growth inhibition, LDH absorbance)",CR-N309K parasites; [10],17.3913 and 10.0471
same,"NORMALISED (growth inhibition, LDH absorbance)","CR-N309K parasites; 2.5 mM GlcN, dilution point 8 of 10 from starting concentration 5 uM",5.138 and 4.2631
same,"NORMALISED (growth inhibition, LDH absorbance)","CR-N309K parasites; 2.5 mM GlcN, dilution point 9 of 10 from starting concentration 5 uM",11.3967 and 7.51
same,fold less susceptible than the 3D7 and CR-WT controls,CR-N309K parasites; Fig 4C,around 600 fold
same,fold sensitised on PfSTART1 knock-down with GlcN,CR-N309K parasites; Fig 4C,5 fold
same,EC50,"CR-N309K parasites; Fig 4C, 0 mM GlcN, n = 3, read-out: EC50 W-991 (95% confidence interval)",< 700 nM
same,inhibition at 5 µM,"CR-N309K parasites; Plasmodium falciparum, 0.25 mM GlcN, dilution point 1 of 10, starting concentration 5 uM",101%
same,inhibition at 5 µM,"CR-N309K parasites; Plasmodium falciparum, 2.5 mM GlcN, dilution point 1 of 10, starting concentration 5 uM",94.5%
same,EC50,"CR-N309K parasites; Plasmodium falciparum, read-out: EC50 W-991 (95% confidence interval), Fig 4C, 0 mM GlcN, n = 3",687 nM
same,EC50,"CR-N309K parasites; Plasmodium falciparum, read-out: EC50 W-991 (95% confidence interval), Fig 4C, 0.25 mM GlcN, n = 3",362 nM
same,EC50,"CR-N309K parasites; Plasmodium falciparum, read-out: EC50 W-991 (95% confidence interval), Fig 4C, 2.5 mM GlcN, n = 3",137 nM
same,EC50,"CR-N309K parasites; read-out: EC50 W-991 (95% confidence interval), Fig 4C, 0 mM GlcN, n = 3",687 nM
same,"NORMALISED (growth inhibition, LDH absorbance)","CR-N330K parasites; 0 mM GlcN, dilution point 1 of 10, starting concentration 5 uM",89.5809 and 91.9275
same,"NORMALISED (growth inhibition, LDH absorbance)","CR-N330K parasites; 0 mM GlcN, dilution point 2 of 10 from starting concentration 5 uM",82.5498 and 75.3344
same,"NORMALISED (growth inhibition, LDH absorbance)",CR-N330K parasites; [1],90.7025
same,"NORMALISED (growth inhibition, LDH absorbance)",CR-N330K parasites; [2],83.8227
same,"NORMALISED (growth inhibition, LDH absorbance)",CR-N330K parasites; [3],67.3993 and 45.0538
same,"NORMALISED (growth inhibition, LDH absorbance)",CR-N330K parasites; [4],5.889 and 5.4992
same,"NORMALISED (growth inhibition, LDH absorbance)",CR-N330K parasites; [5],66.3651 and 90.1101
same,"NORMALISED (growth inhibition, LDH absorbance)",CR-N330K parasites; [6],62.0066 and 84.8366
same,"NORMALISED (growth inhibition, LDH absorbance)",CR-N330K parasites; [7],63.3224 and 83.4457
same,"NORMALISED (growth inhibition, LDH absorbance)",CR-N330K parasites; [8],52.3849 and 74.2725
same,"NORMALISED (growth inhibition, LDH absorbance)",CR-N330K parasites; [9],40.7072 and 51.6938
same,"NORMALISED (growth inhibition, LDH absorbance)",CR-N330K parasites; [10],28.9474 and 29.6954
